Results: US20230263786A1, “MODULATION OF DRUG-DRUG INTERACTIONS OF VADADUSTAT” (Akebia Therapeutics, Inc., priority 2020, published 2023)
Values belong to the compound of their own block, whether it stands above or below them.

What was measured:
clinical = type: in vivo, human
Experimental: Subjects would remain fasted for approximately 4 hours after dosing. […] Subjects would remain fasted for at least 4 hours after dosing. Subjects were discharged from the clinical research unit on the morning of Day 6.

[1] = Phase I interaction study Part 2 Arm 2: pravastatin; type: in vivo, human; settings: for Cmax / AUC(0-inf) / AUC(0-t): both sexes, human, plasma, oral; for AUC(0-inf): read-out: AUC0-inf, Geometric LSM; for AUC(0-t): read-out: AUC0-last, Geometric LSM
Experimental: The pharmacokinetic (pK) parameters and safety of said drugs administered alone and in combination with Compound 1 were characterized.
Arm 2 (pravastatin): 26 subjects were treated with the study drug. On the morning of Day 1, subjects received a single oral dose pravastatin 40 mg after at least a 10-hour overnight fast. Subjects would remain fasted for approximately 4 hours after dosing. Following a 2-day washout period (Days 1-2) subjects received vadadustat 600 mg once daily beginning on Day 3 for 4 days (Days 3-6). When administered alone, vadadustat would be administered in the morning at least 30 minutes prior to breakfast. On Day 6, subjects received their morning dose of vadadustat 600 mg along with a single oral dose of pravastatin 40 mg after at least a 10-hour overnight fast. Subjects would remain fasted for at least 4 hours after dosing. Subjects were discharged from the clinical research unit on the morning of Day 7.

[2] = Phase I ferrous sulfate tablet interaction study; settings: for Metabolite Ratio AUC(0-t) / Metabolite Ratio Cmax: Metabolite/Parent; for AUC(0-t) / Cmax / Tmax: metabolite in plasma; for AUC(0-t) / Cmax: mean; for Tmax: median;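 as to all read-outs here: crossover in fasted human subjects with four-day washout between periods, plasma glucuronide metabolite pharmacokinetics, ratios computed as metabolite over parent for AUC and Cmax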
[3] = Phase I interaction study Part 1: rosuvastatin; type: in vivo, human; settings: for AUC(0-inf) / AUC(0-t) / Cmax: both sexes, human, plasma, oral; for AUC(0-inf): read-out: AUC0-inf, Geometric LSM; for AUC(0-t): read-out: AUC0-last, Geometric LSM; for Cmax: read-out: Cmax, Geometric LSM
Experimental: In Part 1, 34 subjects were treated with the study drug. On the morning of Day 1, subjects received a single oral dose of rosuvastatin 20 mg after at least a 10-hour overnight fast. Subjects would remain fasted for at least 4 hours after dosing. […] When administered alone, vadadustat would be administered in the morning at least 30 minutes prior to breakfast. On Day 10, subjects received their morning dose of vadadustat 600 mg along with a single oral dose of rosuvastatin 20 mg after at least a 10-hour overnight fast. Subjects would remain fasted for at least 4 hours after dosing. Subjects were discharged from the clinical research unit (CRU) on the morning of Day 15.

[4] = Phase I interaction study Part 2 Arm 1: sulfasalazine; type: in vivo, human; settings: human, in vivo
Experimental: The study included 3 periods as follow: • Screening: performed within 28 days prior to dosing on Day 1. • Treatment period: […] In Part 2 (Arm 1): For each dose of sulfasalazine administered, blood samples for PK analysis were collected at the following timepoints: pre-dose, 0.5, 1, 2, 3, 4, 5, 6, 8, 12, 18, 24, 36, 48, 60, 72 and 96 hours postdose. […] Arm 1 (sulfasalazine): 26 subjects were treated with the study drug. On the morning of Day 1, subjects received a single oral dose of sulfasalazine 500 mg after at least a 10-hour overnight fast. Subjects would remain fasted for approximately 4 hours after dosing. Following a 5-day washout period (Days 1-5) subjects received vadadustat 600 mg once daily beginning on Day 6 for 7 days (Days 6-12). […] On Day 9, subjects received their morning dose of vadadustat 600 mg along with a single oral dose of sulfasalazine 500 mg after at least a 10-hour overnight fast. Subjects would remain fasted for at least 4 hours after dosing. Subjects were discharged from the clinical research unit on the morning of Day 13.

[5] = both sexes, human, in vivo, 40 mg
[6] = administered with Compound 1 compared to alone
[7] = Treatment P + V: pravastatin 40 mg + vadadustat 600 mg QD
[8] = Treatment P: pravastatin 40 mg alone
[9] = pravastatin 40 mg, vadadustat 600 mg QD
[10] = treatment Compound 1 450 mg alone
[11] = Rosuvastatin 20 mg, Compound 1 600 mg
[12] = Treatment R + V: rosuvastatin 20 mg + vadadustat 600 mg QD
[13] = Treatment R: rosuvastatin 20 mg alone
[14] = rosuvastatin 20 mg, vadadustat 600 mg QD

AUC(0-inf) (clinical; [5]): 20200 ng·h/mL
AUC(0-t) (clinical; [5]): 17300 ng·h/mL
Cmax (clinical; [5]): 1850 ng/mL
Compound: CCC(C)(C)C(=O)O[C@H]1C[C@@H](C)C=C2C=C[C@H](C)[C@H](CC[C@@H](O)C[C@@H](O)CC(=O)O)[C@H]21 [β-hydroxysimvastatin acid, (3R,5R)-7-[(1S,2S,6R,8S,8aR)-8-(2,2-dimethylbutanoyloxy)-2,6-dimethyl-1,2,6,7,8,8a-hexahydronaphthalen-1-yl]-3,5-dihydroxyheptanoic acid]

change of systemic exposure [1, 6]: unchanged
Cmax [1, 7]: 44 ng/mL
AUC(0-inf) [1, 7]: 137000 ng·h/mL
AUC(0-t) [1, 7]: 134000 ng·h/mL
Cmax [1, 8]: 53.2 ng/mL
AUC(0-inf) [1, 8]: 134000 ng·h/mL
AUC(0-t) [1, 8]: 130000 ng·h/mL
AUC0-inf, Geometric LSM Ratio (P + V/P) [1, 9]: 102.03%
AUC0-last, Geometric LSM Ratio (P + V/P) [1, 9]: 102.98%
Cmax, Geometric LSM Ratio (P + V/P) [1, 9]: 82.74%
Compound: CC[C@H](C)C(=O)O[C@H]1C[C@H](O)C=C2C=C[C@H](C)[C@H](CC[C@@H](O)C[C@@H](O)CC(=O)O)[C@H]21 [Pravastatin, pravastatin]

Metabolite Ratio AUC(0-t) ([2]; treatment Compound 1 + Iron): 0.000458
Metabolite Ratio Cmax ([2]; treatment Compound 1 + Iron): 0.000909
Metabolite Ratio AUC(0-t) ([2]; treatment Compound 1 alone): 0.00543
Metabolite Ratio Cmax ([2]; treatment Compound 1 alone): 0.00112
AUC(0-t) [2, 10]: 208 ng·h/mL
Cmax [2, 10]: 82.6 ng/mL
Tmax [2, 10]: 1.75 h
AUC(0-t) ([2]; treatment Compound 1 + Iron): 86.4 ng·h/mL
Cmax ([2]; treatment Compound 1 + Iron): 32.2 ng/mL
Tmax ([2]; treatment Compound 1 + Iron): 3.0 h
Compound: O=C(CNC(=O)c1ncc(-c2cccc(Cl)c2)cc1O)O[C@@H]1O[C@H](C(=O)O)[C@@H](O)[C@H](O)[C@H]1O [Compound 1-acyl-glucuronide]

AUC0-∞, Ratio of geometric mean value Combined/alone [3, 11]: 246.86%
Cmax, Ratio of geometric mean value Combined/alone [3, 11]: 274.80%
AUC(0-inf) [3, 12]: 254 ng·h/mL
AUC(0-t) [3, 12]: 249 ng·h/mL
Cmax [3, 12]: 27.9 ng/mL
AUC(0-inf) [3, 13]: 103 ng·h/mL
AUC(0-t) [3, 13]: 98.4 ng·h/mL
Cmax [3, 13]: 10.2 ng/mL
AUC0-inf, Geometric LSM Ratio (R + V/R) [3, 14]: 246.86%
AUC0-last, Geometric LSM Ratio (R + V/R) [3, 14]: 252.86%
Cmax, Geometric LSM Ratio (R + V/R) [3, 14]: 274.80%
Compound: CC(C)c1nc(N(C)S(C)(=O)=O)nc(-c2ccc(F)cc2)c1/C=C/[C@@H](O)C[C@@H](O)CC(=O)O [Rosuvastatin, rosuvastatin]

AUC(0-inf) ([4]; both sexes, 500 mg): 82700 ng·h/mL
AUC(0-t) ([4]; both sexes, 500 mg): 82200 ng·h/mL
Cmax ([4]; both sexes, 500 mg): 9700 ng/mL
increase of systemic exposure ([4]; both): up to 4.5 fold
Compound: O=C(O)c1cc(/N=N/c2ccc(S(=O)(=O)Nc3ccccn3)cc2)ccc1O [Sulfasalazine, sulfasalazine, reference compound]

increase of total exposure (clinical; [6]): about 2 fold
Compound: CCC(C)(C)C(=O)O[C@H]1C[C@@H](C)C=C2C=C[C@H](C)[C@H](CC[C@@H]3C[C@@H](O)CC(=O)O3)[C@H]21 [Simvastatin, simvastatin, reference compound]
